The source of these data is patent US8530521B2, “Nitrooxy cycloalkane derivatives” (Merck Sharp & Dohme Corp., priority 2008, dated 2013).

The subject of the assay is isolated rabbit thoracic aorta preparations. Briefly: Vessel relaxation in isolated rabbit thoracic aorta rings precontracted with noradrenaline. The following applies: for EC50: Oryctolagus cuniculus.

As to `CC(=O)N[C@H](C(=O)O)C(C)(C)SN=O` (racemic) [SNAP, S-nitroso-N-acetylpenicillamine, reference compound], the “Max. Relaxation” value (concentration not given) amounted to 97.3%. In general, EC50 refers to the concentration that produces a half-maximal response. Lower therefore signals greater potency. With `CO[C@H]1C[C@@H](C(=O)O)C[C@@H]1O[N+](=O)[O-]` [Example 1, (+)-(1R,3S,4S)-3-methoxy-4-(nitrooxy)cyclopentanecarboxylic acid], the response was half-maximal at 126 µM (EC50). Also, for the setting “@ 1 μM”, the “Max. Relaxation” value is reported as 37.47%. For the compound `COC(=O)[C@@H]1CC[C@H](OC)[C@@H](O[N+](=O)[O-])C1` [Example 21, (1R,3S,4S)-methyl 4-methoxy-3-(nitrooxy)cyclohexanecarboxylate], the EC50 stood at 1 ± 0.2 µM. In the case of `COC(=O)[C@@H]1CC[C@@H](O[N+](=O)[O-])[C@H](OC)C1` [Example 22, (1R,3R,4R)-methyl 3-methoxy-4-(nitrooxy)cyclohexanecarboxylate], the EC50 was 6.3 ± 2 µM.

For `COC(=O)[C@@H]1CC[C@H](O[N+](=O)[O-])[C@@H](OC)C1` [Example 23, (1R,3S,4S)-methyl 3-methoxy-4-(nitrooxy)cyclohexanecarboxylate], a half-maximal response (EC50) required 3.5 ± 0.6 µM.

In turn, `COC(=O)[C@@H]1CC[C@@H](OC)[C@H](O[N+](=O)[O-])C1` [Example 24, (1R,3R,4R)-methyl 4-methoxy-3-(nitrooxy)cyclohexanecarboxylate] registered an EC50 of 11.1 ± 4.5 µM.
